Patent US11078540B2, “Methods of diagnosing and treating cancer in patients having or developing resistance to a first cancer therapy” (DANA-FARBER CANCER INSTITUTE, INC., priority 2010, dated 2021)
One block for each molecule: values may come before it.

What was measured:
COT mRNA [1] = experiment: Quantitative RT-PCR of COT mRNA in lesion-matched biopsies of PLX4032-treated metastatic melanoma patients; format: in vivo, human; details: 3 patients with metastatic B-RAF^V600E melanoma, on-treatment vs pre-treatment biopsies
Source text: Biopsied tumor material consisted of discarded and de-identified tissue that was obtained with informed consent and characterized under protocol 02-017 (paired samples, Massachusetts General Hospital) and 07-087 (unpaired sample, Dana-Farber Cancer Institute). For paired specimens, ‘on-treatment’ samples were collected 10-14 days after initiation of PLX4032 treatment (Table 6).
(§1) mRNA was extracted from cell lines and fresh-frozen tumors using the RNeasy kit (Qiagen). Total mRNA was used for subsequent reverse transcription using the SuperScript III First-Strand Synthesis SuperMix (Invitrogen) for cell lines and unpaired tumor samples, and the SuperScript VILO cDNA synthesis kit (Invitrogen) for paired frozen tumor samples. 5 μl of the RT reaction was used for quantitative PCR using SYBR Green PCR Master Mix and gene-specific primers, in triplicate, using an ABI 7300 Real Time PCR System. Primers used for detection are as follows: […]

[2] = test system: pERK1/2 (T202/Y204), pMEK1/2 (S217/221); experiment: Immunoblots and immunoprecipitations of MAPK pathway proteins in treated cells; format: cell-based, human
Protocol: Cells were washed twice with ice-cold PBS and lysed with 1% NP-40 buffer [150 mM NaCl, 50 mM Tris pH 7.5, 2 mM EDTA pH 8, 25 mM NaF and 1% NP-40] containing 2× protease inhibitors (Roche) and 1× Phosphatase Inhibitor Cocktails I and II (CalBioChem). Lysates were quantified (Bradford assay), normalized, reduced, denatured (95° C.) and resolved by SDS gel electrophoresis on 10% Tris/Glycine gels (Invitrogen). Protein was transferred to PVDF membranes and probed with primary antibodies recognizing pERK1/2 (T202/Y204), pMEK1/2 (S217/221), MEK1/2, MEK1, MEK2, C-RAF (rabbit host), pC-RAF (pS338) (Cell Signaling Technology; 1:1,000), V5-HRP (Invitrogen; (1:5,000), COT (1:500), B-RAF (1:2,000), Actin (1:1,000), Actin-HRP (1:1,000; Santa Cruz)), C-RAF (mouse host; 1:1,000; BD Transduction Labs), Vinculin (Sigma; 1:20,000), AXL (1:500; R&D Systems). After incubation with the appropriate secondary antibody (anti-rabbit, anti-mouse IgG, HRP-linked; 1:1,000 dilution, Cell Signaling Technology or anti-goat IgG, HRP-linked; 1:1,000 dilution; Santa Cruz), proteins were detected using chemiluminescence (Pierce). Immunoprecipitations were performed overnight at 4° C. in 1% NP-40 lysis buffer, as described above, at a concentration of 1 μg/μl total protein using an antibody recognizing C-RAF (1:50; Cell Signaling Technology). Antibody: antigen complexes were bound to Protein A agarose (25 μL, 50% slurry; Pierce) for 2 hrs. at 4° C. Beads were centrifuged and washed three times in lysis buffer and eluted and denatured (95° C.) in 2× reduced sample buffer (Invitrogen). Immunoblots were performed as above. Phospho-protein quantification was performed using NIH Image J.

A375 cells [3] = experiment: Secondary screen: PLX4720 GI50 in A375 expressing candidate resistance ORFs (WST-1); format: cell-based, human; details: for GI50: Homo sapiens
Protocol: (§2) ORF-expressing lentivirus was added at a 1:10 dilution in the presence of 8 μg/ml polybrene, and centrifuged at 2250 RPM and 37° C. for 1 h. Following centrifugation, virus-containing media was changed to normal growth media and allowed to incubate for 18 h.

A375 cells [4] = experiment: High throughput ORF screening: viability of A375 expressing the kinase ORF collection in 1 μM PLX4720 relative to untreated, normalized to MEK1DD (Cell Titer-Glo); format: cell-based, human; details: Homo sapiens, A-375; A375 expressing kinase ORF collection, 1 μM PLX4720; read-out: relative viability, mean of all ORFs, normalized to MEK1DD
Protocol: A375 melanoma cells were plated in 384-well microtiter plates (500 cells per well). The following day, cells were spin-infected with the lentivirally-packaged kinase ORF library in the presence of 8 ug/ml polybrene. 48 hours post-infection, media was replaced with standard growth media (2 replicates), media containing 1 μM PLX4720 (2 replicates, 2 time points) or media containing 10 ug/ml blasticidin (2 replicates). After four days and 6 days, cell growth was assayed using Cell Titer-Glo (Promega) according to manufacturer instructions. The entire experiment was performed twice.
Raw luminescence values were imported into Microsoft Excel. Infection efficiency was determined by the percentage of duplicate-averaged raw luminescence in blasticidin selected cells relative to non-selected cells. ORFs with an infection efficiency of less than 0.70 were excluded from further analysis along with any ORF having a standard deviation of >15,000 raw luminescence units between duplicates. To identify ORFs whose expression affects proliferation, we compared the duplicate-averaged raw luminescence of individual ORFs against the average and standard deviation of all control-treated cells via the z-score, or standard score, below,
[formula] where x=average raw luminescence of a given ORF, μ=the mean raw luminescence of all ORFs and σ=the standard deviation of the raw luminescence of all wells. Any individual ORF with a z-score>+2 or <−2 was annotated as affecting proliferation and removed from final analysis. Differential proliferation was determined by the percentage of duplicate-averaged raw luminescence values in PLX4720 (1 μM) treated cells relative to untreated cells. […] MEK1^DD normalized differential proliferation for each individual ORF was averaged across two duplicate experiments, with two time points for each experiment (day 4 and day 6). A z-score was then generated, as described above for average MEK1^DD normalized differential proliferation. ORFs with a z-score of >2 were considered hits and were followed up in the secondary screen.

B-RAF^V600E cell lines = experiment: Pharmacologic growth inhibition assays (WST1 viability, GI50, single-dose studies); format: cell-based, human
Protocol: Cultured cells were seeded into 96-well plates (3,000 cells per well) for all melanoma cell lines; 1,500 cells were seeded for A375. Twenty-four hours after seeding, serial dilutions of the relevant compound were prepared in DMSO added to cells, yielding final drug concentrations ranging from 100 μM to […], with the final volume of DMSO not exceeding 1%. Cells were incubated for 96 h following addition of drug. Cell viability was measured using the WST1 viability assay (Roche). Viability was calculated as a percentage of control (untreated cells) after background subtraction. A minimum of six replicates were performed for each cell line and drug combination. Data from growth-inhibition assays were modeled using a nonlinear regression curve fit with a sigmoid dose-response. […] Sigmoid-response curves that crossed the 50% inhibition point at or above 10 μM have GI50 values annotated as >10 μM. For single-dose studies, the identical protocol was followed, using a single dose of indicated drug (1 μM unless otherwise noted).

SKMEL28 cells = experiment: Secondary screen: PLX4720 GI50 in SKMEL28 expressing candidate resistance ORFs (WST-1); format: cell-based, human; details: for GI50: Homo sapiens
Protocol: as §2

COT mRNA [5] = experiment: Quantitative RT-PCR of COT mRNA in cell lines; format: cell-based, human; details: COT-expressing A375 cells, 1 μM PLX4720, 18 h
Protocol: as §1

[6] = ectopic COT expression, 1 μM each, versus single-agent PLX4720 up to 10 μM

Compound: CCCS(=O)(=O)Nc1ccc(F)c(C(=O)c2c[nH]c3ncc(-c4ccc(Cl)cc4)cc23)c1F [PLX4032]
COT mRNA expression concurrent with treatment (COT mRNA [1]): increased COT mRNA expression

Fold Change GI50 (A375 cells [3]; A375 expressing AXL ORF, relative to MEK1): 5.98 fold
Fold Change GI50 (A375 cells [3]; A375 expressing CRKL ORF, relative to MEK1): 59.8 fold
Fold Change GI50 (A375 cells [3]; A375 expressing ERBB2 ORF, relative to MEK1): 7.95 fold
Fold Change GI50 (A375 cells [3]; A375 expressing FGR ORF, relative to MEK1): 59.8 fold
Fold Change GI50 (A375 cells [3]; A375 expressing MAP3K8 ORF, relative to MEK1): 598 fold
Fold Change GI50 (A375 cells [3]; A375 expressing MEK1, (−) control): 1 fold
Fold Change GI50 (A375 cells [3]; A375 expressing MEK DD, (+) control, relative to MEK1): 28 fold
Fold Change GI50 (A375 cells [3]; A375 expressing PAK3 ORF, relative to MEK1): 2.95 fold
Fold Change GI50 (A375 cells [3]; A375 expressing PRKCE ORF, relative to MEK1): 26.4 fold
Fold Change GI50 (A375 cells [3]; A375 expressing PRKCH ORF, relative to MEK1): 24.7 fold
Fold Change GI50 (A375 cells [3]; A375 expressing RAF1 ORF, relative to MEK1): 598 fold
GI50 (A375 cells [3]; A-375, A375 expressing AXL ORF): 1000 nM
GI50 (A375 cells [3]; A-375, A375 expressing CRKL ORF): > 10000 nM
GI50 (A375 cells [3]; A-375, A375 expressing ERBB2 ORF): 1330 nM
GI50 (A375 cells [3]; A-375, A375 expressing FGR ORF): > 10000 nM
GI50 (A375 cells [3]; A-375, A375 expressing MAP3K8 ORF): > 100000 nM
GI50 (A375 cells [3]; A-375, A375 expressing MEK1, (−) control): 167 nM
GI50 (A375 cells [3]; A-375, A375 expressing MEK DD, (+) control): 4800 nM
GI50 (A375 cells [3]; A-375, A375 expressing PAK3 ORF): 493 nM
GI50 (A375 cells [3]; A-375, A375 expressing PRKCE ORF): 4410 nM
GI50 (A375 cells [3]; A-375, A375 expressing PRKCH ORF): 4140 nM
GI50 (A375 cells [3]; A-375, A375 expressing RAF1 ORF): ≥ 100000 nM
shift of the PLX4720 GI50 (A375 cells [3]; MAP3K8 (COT/Tpl2) and RAF1 (C-RAF) ORFs, in A375 and SKMEL28): 10-600 fold
GI50 (SKMEL28 cells; SK-MEL-28, SKMEL28 expressing AXL ORF): 1180 nM
GI50 (SKMEL28 cells; SK-MEL-28, SKMEL28 expressing CRKL ORF): 9700 nM
GI50 (SKMEL28 cells; SK-MEL-28, SKMEL28 expressing ERBB2 ORF): 1000 nM
GI50 (SKMEL28 cells; SK-MEL-28, SKMEL28 expressing FGR ORF): 5000 nM
GI50 (SKMEL28 cells; SK-MEL-28, SKMEL28 expressing MAP3K8 ORF): > 100000 nM
GI50 (SKMEL28 cells; SK-MEL-28, SKMEL28 expressing MEK1, (−) control): 1000 nM
GI50 (SKMEL28 cells; SK-MEL-28, SKMEL28 expressing MEK DD, (+) control): 8290 nM
GI50 (SKMEL28 cells; SK-MEL-28, SKMEL28 expressing PAK3 ORF): 904 nM
GI50 (SKMEL28 cells; SK-MEL-28, SKMEL28 expressing PRKCE ORF): 1910 nM
GI50 (SKMEL28 cells; SK-MEL-28, SKMEL28 expressing PRKCH ORF): 2260 nM
GI50 (SKMEL28 cells; SK-MEL-28, SKMEL28 expressing RAF1 ORF): ≥ 10000 nM
Fold Change GI50 (SKMEL28 cells; SKMEL28 expressing AXL ORF, relative to MEK1): 1.18 fold
Fold Change GI50 (SKMEL28 cells; SKMEL28 expressing CRKL ORF, relative to MEK1): 9.7 fold
Fold Change GI50 (SKMEL28 cells; SKMEL28 expressing ERBB2 ORF, relative to MEK1): 1 fold
Fold Change GI50 (SKMEL28 cells; SKMEL28 expressing FGR ORF, relative to MEK1): 5 fold
Fold Change GI50 (SKMEL28 cells; SKMEL28 expressing MAP3K8 ORF, relative to MEK1): ~100 fold
Fold Change GI50 (SKMEL28 cells; SKMEL28 expressing MEK1, (−) control): 1 fold
Fold Change GI50 (SKMEL28 cells; SKMEL28 expressing MEK DD, (+) control, relative to MEK1): 8.29 fold
Fold Change GI50 (SKMEL28 cells; SKMEL28 expressing PAK3 ORF, relative to MEK1): 0.9041 fold
Fold Change GI50 (SKMEL28 cells; SKMEL28 expressing PRKCE ORF, relative to MEK1): 1.91 fold
Fold Change GI50 (SKMEL28 cells; SKMEL28 expressing PRKCH ORF, relative to MEK1): 2.26 fold
Fold Change GI50 (SKMEL28 cells; SKMEL28 expressing RAF1 ORF, relative to MEK1): ≥10 fold
Compound: CCCS(=O)(=O)Nc1ccc(F)c(C(=O)c2c[nH]c3ncc(Cl)cc23)c1F [PLX4720]
endogenous C-RAF:B-RAF heterodimers ([2]; A375 cells, immunoprecipitated C-RAF, 1 μM PLX4720, 18 hr): measurable and inducible
COT protein ([2]; COT-expressing A375 cells): dose-dependent increase
ERK phosphorylation in the context of B-RAF inhibition ([2]; OUMS-23, RPMI-7951 and M307): sustained ERK phosphorylation
phosphorylation of ERK/MEK ([2]; OUMS-23, across a dose range of PLX4720): constitutive phosphorylation
Fold Change GI50 (A375 cells [3]; A375, Mock control, relative to MEK1): 0.91 fold
GI50 (A375 cells [3]; A-375, A375, Mock control): 153 nM
viability at 1 µM (A375 cells [4]): 44.3%
GI50 (B-RAF^V600E cell lines; Homo sapiens, OUMS-23, RPMI-7951 and M307 (COT-expressing B-RAF^V600E cell lines)): 8000 to 10000 nM
GI50 (SKMEL28 cells; SK-MEL-28, SKMEL28, Mock control): 529 nM
Fold Change GI50 (SKMEL28 cells; SKMEL28, Mock control, relative to MEK1): 1.89 fold
ectopic COT mRNA levels (COT mRNA [5]): without affecting

Compound: Cn1cnc2c(F)c(Nc3ccc(Br)cc3Cl)c(C(=O)NOCCO)cc21 [AZD6244]
pERK expression, in combination with PLX4720 [2, 6]: more effectively than did single-agent PLX4720
cell growth, in combination with PLX4720 (B-RAF^V600E cell lines; [6]): more effectively than did single-agent PLX4720
